# Tests used:
# Glucocorticoid receptor = target: T1, Glucocorticoid receptor (Homo sapiens, UniProt P04150); assay: Agonist activity at glucocorticoid receptor in human A549 cells assessed as AP-1 transrepression by luciferase reporter gene assay; assay type: cell-based
# T1 sequence (P04150 whole entry): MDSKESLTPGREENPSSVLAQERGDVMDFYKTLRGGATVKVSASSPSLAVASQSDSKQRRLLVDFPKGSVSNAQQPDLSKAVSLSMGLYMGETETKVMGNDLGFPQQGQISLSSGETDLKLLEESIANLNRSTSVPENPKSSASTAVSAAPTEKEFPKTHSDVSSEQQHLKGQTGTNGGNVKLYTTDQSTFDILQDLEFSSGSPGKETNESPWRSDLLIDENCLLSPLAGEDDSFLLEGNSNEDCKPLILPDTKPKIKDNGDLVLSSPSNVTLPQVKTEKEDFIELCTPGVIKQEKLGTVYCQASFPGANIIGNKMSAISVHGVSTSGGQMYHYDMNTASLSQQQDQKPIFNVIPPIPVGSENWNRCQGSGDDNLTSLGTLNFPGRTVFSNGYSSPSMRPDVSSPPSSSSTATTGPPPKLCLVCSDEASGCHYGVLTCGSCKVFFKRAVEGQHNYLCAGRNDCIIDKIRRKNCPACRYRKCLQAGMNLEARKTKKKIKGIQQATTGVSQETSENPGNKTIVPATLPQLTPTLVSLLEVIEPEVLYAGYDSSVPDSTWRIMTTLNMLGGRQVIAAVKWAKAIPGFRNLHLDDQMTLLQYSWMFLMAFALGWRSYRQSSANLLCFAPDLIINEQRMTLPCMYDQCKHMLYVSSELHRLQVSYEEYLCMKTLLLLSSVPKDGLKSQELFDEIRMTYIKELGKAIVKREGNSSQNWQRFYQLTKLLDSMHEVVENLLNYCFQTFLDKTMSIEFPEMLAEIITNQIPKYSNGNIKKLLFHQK
# Estrogen receptor = target: T2, Estrogen receptor (Homo sapiens, UniProt P03372); assay: Binding affinity to estrogen receptor-alpha (unknown origin)
# T2 sequence (P03372 whole entry): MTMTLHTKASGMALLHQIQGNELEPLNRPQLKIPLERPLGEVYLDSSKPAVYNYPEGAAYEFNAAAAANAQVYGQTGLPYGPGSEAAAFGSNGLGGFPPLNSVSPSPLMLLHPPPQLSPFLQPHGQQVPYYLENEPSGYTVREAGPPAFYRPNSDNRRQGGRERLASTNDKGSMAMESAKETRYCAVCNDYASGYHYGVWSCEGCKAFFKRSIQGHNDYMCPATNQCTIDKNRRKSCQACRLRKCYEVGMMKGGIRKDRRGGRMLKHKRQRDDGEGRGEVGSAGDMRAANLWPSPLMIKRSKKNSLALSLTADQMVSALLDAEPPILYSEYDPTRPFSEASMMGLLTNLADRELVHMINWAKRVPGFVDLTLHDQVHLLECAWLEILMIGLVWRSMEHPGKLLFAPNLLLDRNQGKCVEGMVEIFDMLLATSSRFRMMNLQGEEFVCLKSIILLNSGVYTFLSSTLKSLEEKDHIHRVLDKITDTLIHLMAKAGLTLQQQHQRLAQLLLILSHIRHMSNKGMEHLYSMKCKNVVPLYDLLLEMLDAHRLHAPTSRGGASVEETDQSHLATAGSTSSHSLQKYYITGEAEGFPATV
# [1] = target: T3, Mineralocorticoid receptor (Homo sapiens, UniProt P08235); assay: Agonist activity at mineralocorticoid receptor in human A549 cells; assay type: cell-based
# T3 sequence (P08235 whole entry): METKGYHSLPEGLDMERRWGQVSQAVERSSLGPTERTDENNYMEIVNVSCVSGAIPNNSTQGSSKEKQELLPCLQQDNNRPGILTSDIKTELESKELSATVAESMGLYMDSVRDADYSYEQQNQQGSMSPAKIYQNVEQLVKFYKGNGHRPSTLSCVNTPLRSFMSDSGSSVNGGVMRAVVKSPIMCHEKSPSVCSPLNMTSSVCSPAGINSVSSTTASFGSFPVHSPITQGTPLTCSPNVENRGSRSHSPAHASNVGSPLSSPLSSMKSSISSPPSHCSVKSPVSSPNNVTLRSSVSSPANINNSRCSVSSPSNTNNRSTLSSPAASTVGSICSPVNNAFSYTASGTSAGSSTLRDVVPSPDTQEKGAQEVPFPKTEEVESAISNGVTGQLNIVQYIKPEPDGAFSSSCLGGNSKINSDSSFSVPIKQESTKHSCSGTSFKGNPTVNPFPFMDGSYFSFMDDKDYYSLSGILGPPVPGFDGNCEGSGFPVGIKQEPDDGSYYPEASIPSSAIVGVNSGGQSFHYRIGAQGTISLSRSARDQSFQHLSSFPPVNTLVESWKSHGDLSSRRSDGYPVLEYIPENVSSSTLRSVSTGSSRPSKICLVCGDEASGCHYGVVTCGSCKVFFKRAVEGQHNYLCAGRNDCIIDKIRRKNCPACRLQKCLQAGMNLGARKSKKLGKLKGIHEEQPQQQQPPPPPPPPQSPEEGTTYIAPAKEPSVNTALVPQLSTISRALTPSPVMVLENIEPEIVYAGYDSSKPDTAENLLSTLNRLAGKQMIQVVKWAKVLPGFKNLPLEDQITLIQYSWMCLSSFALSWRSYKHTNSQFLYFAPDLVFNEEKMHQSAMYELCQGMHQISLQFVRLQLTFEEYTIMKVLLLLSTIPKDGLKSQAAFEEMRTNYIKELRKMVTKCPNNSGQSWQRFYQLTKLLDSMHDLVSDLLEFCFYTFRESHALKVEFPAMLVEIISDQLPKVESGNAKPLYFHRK
# [2] = Half life in human liver microsomes
# Cytochrome P450 3A4 = Cytochrome P450 3A4 (Homo sapiens, UniProt P08684); assay: Inhibition of CYP3A4 (unknown origin); assay type: ADME
# Cytochrome P450 2C8 = target: T4, Cytochrome P450 2C8 (Homo sapiens, UniProt P10632); assay: Inhibition of CYP2C8 (unknown origin); assay type: ADME
# T4 sequence (P10632 whole entry): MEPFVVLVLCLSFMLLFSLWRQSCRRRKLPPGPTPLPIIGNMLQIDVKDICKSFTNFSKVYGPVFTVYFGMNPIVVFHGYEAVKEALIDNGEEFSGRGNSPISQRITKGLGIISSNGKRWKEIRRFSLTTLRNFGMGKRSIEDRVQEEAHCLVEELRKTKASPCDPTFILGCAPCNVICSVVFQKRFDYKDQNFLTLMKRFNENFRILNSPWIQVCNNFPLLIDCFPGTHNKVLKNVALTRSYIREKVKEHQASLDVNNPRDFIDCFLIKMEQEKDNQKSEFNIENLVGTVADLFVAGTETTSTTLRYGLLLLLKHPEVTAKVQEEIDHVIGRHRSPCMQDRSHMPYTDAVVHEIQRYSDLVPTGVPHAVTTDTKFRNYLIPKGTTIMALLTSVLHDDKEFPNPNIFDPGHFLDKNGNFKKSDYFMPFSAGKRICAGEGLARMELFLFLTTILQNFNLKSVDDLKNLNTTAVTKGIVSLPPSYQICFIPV
# Cytochrome P450 2C9 = Cytochrome P450 2C9 (Homo sapiens, UniProt P11712); assay: Inhibition of CYP2C9 (unknown origin); assay type: ADME
# Cytochrome P450 2C9, sequence (P11712 whole entry): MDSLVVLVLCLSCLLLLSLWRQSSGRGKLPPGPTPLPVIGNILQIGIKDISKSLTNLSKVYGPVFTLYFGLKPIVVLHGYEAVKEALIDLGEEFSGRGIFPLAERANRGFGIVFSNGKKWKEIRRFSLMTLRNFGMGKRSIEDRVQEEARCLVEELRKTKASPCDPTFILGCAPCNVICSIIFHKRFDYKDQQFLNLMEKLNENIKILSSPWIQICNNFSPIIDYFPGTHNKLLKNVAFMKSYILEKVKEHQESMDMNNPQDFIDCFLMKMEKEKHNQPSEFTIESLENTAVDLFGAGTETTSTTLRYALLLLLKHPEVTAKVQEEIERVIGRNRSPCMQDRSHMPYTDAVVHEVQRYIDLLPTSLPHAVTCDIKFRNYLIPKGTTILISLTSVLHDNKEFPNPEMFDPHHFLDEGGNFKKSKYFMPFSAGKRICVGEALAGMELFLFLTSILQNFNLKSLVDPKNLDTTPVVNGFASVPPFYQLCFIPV
# Cytochrome P450 3A4, sequence (P08684 whole entry): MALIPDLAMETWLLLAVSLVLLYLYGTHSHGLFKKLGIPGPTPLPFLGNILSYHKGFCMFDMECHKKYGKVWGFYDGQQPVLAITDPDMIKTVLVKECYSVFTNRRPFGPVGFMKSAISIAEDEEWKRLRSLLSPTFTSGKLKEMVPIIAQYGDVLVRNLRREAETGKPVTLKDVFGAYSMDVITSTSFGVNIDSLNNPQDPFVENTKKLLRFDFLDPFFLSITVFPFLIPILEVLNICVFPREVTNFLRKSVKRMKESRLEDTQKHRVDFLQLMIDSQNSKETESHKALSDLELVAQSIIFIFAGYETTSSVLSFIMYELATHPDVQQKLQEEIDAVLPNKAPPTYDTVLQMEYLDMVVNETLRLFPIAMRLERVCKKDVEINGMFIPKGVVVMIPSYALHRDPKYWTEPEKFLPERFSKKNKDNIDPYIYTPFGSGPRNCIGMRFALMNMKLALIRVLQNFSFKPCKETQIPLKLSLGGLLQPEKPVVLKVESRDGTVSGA
SMILES,EC50 (Glucocorticoid receptor),Ki (Estrogen receptor),EC50 [1],half-life ([2]; liver microsomes),IC50 (Cytochrome P450 3A4),IC50 (Cytochrome P450 2C8),IC50 (Cytochrome P450 2C9),half-life ([2]; microsomes)
CC(C)(C(=O)Nc1nncs1)[C@@H]1c2ccc(-c3ccc(C(=O)N4CCOCC4)cc3)nc2Oc2c(F)cccc21,0.0021 µM,> 75 µM,> 5 µM,9.1 min,0.3 µM,3.7 µM,1 µM,
CC(C)(C(=O)NC(N)=O)[C@@H]1c2ccc(-c3ccc(C(=O)N4CCOCC4)cc3)nc2Oc2c(F)cccc21,0.0021 µM,> 75 µM,> 5 µM,,> 40 µM,8.9 µM,14 µM,41 min
